Experimental data published in ChEMBL document CHEMBL1124940, “N-[(arylmethoxy)phenyl] carboxylic acids, hydroxamic acids, tetrazoles, and sulfonyl carboxamides. Potent orally active leukotriene D4 antagonists of novel structure” (J Med Chem, 1990).

Tests used:
Cavia porcellus [1] = assay: Inhibition of LTD4-induced broncho constriction in Guinea pig after intragastrical administration of a dose of 25 mg/kg; format: functional; details: po, route intragastric
Cavia porcellus [2] = assay: Tested for the inhibition of LTD4-induced broncho constriction in Guinea pig, compound injected intragastrically at a dose of 25 mg/kg; format: functional; details: po, route intragastric
Cavia porcellus [3] = assay: Tested for the inhibition of LTD4-induced broncho constriction in Guinea pig, injected intraduodenally at a dose of 25 mg/kg; format: functional; details: route intraduodenal
Cavia porcellus [4] = assay: Inhibition of LTD4-induced broncho constriction in Guinea pig after intraduodenal administration of a dose of 25 mg/kg; format: functional
Cavia porcellus [5] = assay: Tested for the inhibition of ovalbumin- induced bronchoconstriction in Guinea pig, injected intragastrically, dose of 10 mg/kg.; format: functional; details: po, route intragastric
Cavia porcellus [6] = assay: Tested for the inhibition of ovalbumin- induced bronchoconstriction in Guinea pig, injected intragastrically, dose of 25 mg/kg; format: functional; details: po, route intragastric
Cavia porcellus [7] = assay: Tested for the inhibition of LTD4-induced bronchoconstriction in Guinea pig, injected intraduodenally, dose is 3 mg/kg; format: functional; details: route intraduodenal
Cavia porcellus [8] = assay: Tested for the inhibition of ovalbumin- induced bronchoconstriction in Guinea pig, injected intraduodenally, dose is 25 mg/kg.; format: functional; details: route intraduodenal
Cavia porcellus [9] = assay: Tested for the inhibition of ovalbumin- induced bronchoconstriction in Guinea pig, injected intraduodenally, dose of 3 mg/kg.; format: functional; details: route intraduodenal
Cavia porcellus [10] = assay: Tested for the inhibition of LTD4-induced bronchoconstriction in Guinea pig, injected intragastrically, dose of 10 mg/kg; format: functional; details: po, route intragastric
Cavia porcellus [11] = assay: Tested for the inhibition of LTD4-induced bronchoconstriction in Guinea pig, injected intragastrically, dose of 3 mg/kg.; format: functional; details: po, route intragastric
Cavia porcellus [12] = assay: Inhibition of LTD4-induced broncho constriction in Guinea pig after intragastrical administration of a dose of 3 mg/kg; format: functional; details: po, route intragastric
Cavia porcellus [13] = assay: Dissociation constant was determined In vitro in isolated guinea pig trachea after intraduodenal administration; format: ADME, organism-based; details: in vivo, other
Cavia porcellus [14] = assay: In vitro for inhibition of ovalbumin-induced bronchoconstriction in isolated guinea pig trachea by injecting intraduodenally; format: functional; details: intraduodenal
Cavia porcellus [15] = assay: In vitro inhibition of LTD4-induced bronchoconstriction after intragastrical administration 120 min before agonist into isolated guinea pig trachea; format: functional; details: po
Cavia porcellus [16] = assay: In vitro inhibition of ovalbumin-induced bronchoconstriction after intragastrical administration 120 min before agonist into isolated guinea pig trachea; format: functional; details: po
Cavia porcellus [17] = assay: Examined in vitro for LTD4-induced bronchoconstriction in isolated guinea pig trachea by injecting intraduodenally; format: functional; details: intraduodenal
[18] = molecular target: T1, Polyunsaturated fatty acid 5-lipoxygenase (Rattus norvegicus, UniProt P12527); assay: Concentration for 50% inhibition of A-23187-stimulated radiolabeled 5-HETE and TXB2 synthesis by PMN 5-lipoxygenase; format: functional
T1 sequence (P12527 whole entry): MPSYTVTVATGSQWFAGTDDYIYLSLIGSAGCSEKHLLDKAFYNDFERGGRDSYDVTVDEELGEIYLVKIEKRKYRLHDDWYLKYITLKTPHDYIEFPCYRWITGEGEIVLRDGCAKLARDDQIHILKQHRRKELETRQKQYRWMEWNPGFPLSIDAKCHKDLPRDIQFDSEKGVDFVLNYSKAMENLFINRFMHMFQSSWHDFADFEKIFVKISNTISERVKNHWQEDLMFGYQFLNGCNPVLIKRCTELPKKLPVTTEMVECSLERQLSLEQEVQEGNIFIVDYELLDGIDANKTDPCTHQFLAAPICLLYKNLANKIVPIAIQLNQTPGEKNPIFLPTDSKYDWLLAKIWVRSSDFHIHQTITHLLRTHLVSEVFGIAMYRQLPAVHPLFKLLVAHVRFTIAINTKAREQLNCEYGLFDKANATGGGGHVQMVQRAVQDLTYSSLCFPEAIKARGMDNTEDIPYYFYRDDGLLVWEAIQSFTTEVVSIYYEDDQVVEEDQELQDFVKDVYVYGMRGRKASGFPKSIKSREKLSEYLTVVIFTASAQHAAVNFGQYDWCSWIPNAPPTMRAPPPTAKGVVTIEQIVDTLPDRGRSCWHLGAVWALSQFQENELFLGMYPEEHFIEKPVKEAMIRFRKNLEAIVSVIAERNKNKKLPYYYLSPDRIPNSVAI

Cyclooxygenase = molecular target: T2, Cyclooxygenase (Rattus norvegicus, UniProt P35355+Q63921); assay: Concentration for 50% inhibition of A-23187-stimulated radiolabeled 5-HETE and TXB2 synthesis by Prostaglandin G/H synthase; format: protein assay
T2 sequence (P35355 whole entry): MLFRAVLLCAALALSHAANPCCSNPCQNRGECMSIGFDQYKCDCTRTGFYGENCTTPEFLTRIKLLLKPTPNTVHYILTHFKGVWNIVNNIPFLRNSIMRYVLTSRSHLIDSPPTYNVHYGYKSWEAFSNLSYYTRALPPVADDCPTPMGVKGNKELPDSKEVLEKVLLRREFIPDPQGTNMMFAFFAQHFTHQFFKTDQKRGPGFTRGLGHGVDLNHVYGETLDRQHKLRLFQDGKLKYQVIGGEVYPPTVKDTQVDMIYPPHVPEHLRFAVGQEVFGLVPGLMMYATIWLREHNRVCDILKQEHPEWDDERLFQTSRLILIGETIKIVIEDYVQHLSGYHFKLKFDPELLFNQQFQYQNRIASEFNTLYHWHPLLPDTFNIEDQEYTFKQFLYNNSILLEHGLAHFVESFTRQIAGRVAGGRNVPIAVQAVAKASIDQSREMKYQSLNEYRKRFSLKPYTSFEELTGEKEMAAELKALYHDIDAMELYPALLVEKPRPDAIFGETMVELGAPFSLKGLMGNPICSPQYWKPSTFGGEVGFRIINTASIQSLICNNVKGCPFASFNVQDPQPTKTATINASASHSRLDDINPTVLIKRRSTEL
T2 sequence (Q63921 whole entry): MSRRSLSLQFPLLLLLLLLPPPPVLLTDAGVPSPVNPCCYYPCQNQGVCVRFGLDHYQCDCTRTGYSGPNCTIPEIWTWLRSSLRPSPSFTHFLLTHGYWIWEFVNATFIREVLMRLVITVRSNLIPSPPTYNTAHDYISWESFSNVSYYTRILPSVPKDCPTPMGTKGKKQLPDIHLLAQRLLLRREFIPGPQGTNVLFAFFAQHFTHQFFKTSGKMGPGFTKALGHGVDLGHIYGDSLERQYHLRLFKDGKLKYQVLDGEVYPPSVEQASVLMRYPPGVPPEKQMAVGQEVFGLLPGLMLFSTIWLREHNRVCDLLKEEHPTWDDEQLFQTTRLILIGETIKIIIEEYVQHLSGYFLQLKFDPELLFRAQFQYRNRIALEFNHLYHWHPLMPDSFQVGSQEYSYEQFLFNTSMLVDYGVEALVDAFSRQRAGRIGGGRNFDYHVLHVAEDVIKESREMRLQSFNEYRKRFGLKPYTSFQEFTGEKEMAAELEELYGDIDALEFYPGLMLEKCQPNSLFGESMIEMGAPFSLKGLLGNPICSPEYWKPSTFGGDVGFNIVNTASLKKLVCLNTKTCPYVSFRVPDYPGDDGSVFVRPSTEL

Cavia porcellus [19] = assay: Inhibition of LTD4-induced broncho constriction in Guinea pig after intragastrical administration of a dose of 0.3 mg/kg; format: functional; details: po, route intragastric
Cavia porcellus [20] = assay: Inhibition of LTD4-induced broncho constriction in Guinea pig after intragastrical administration of a dose of 1 mg/kg; format: functional; details: po, route intragastric
Cavia porcellus [21] = assay: Tested for the inhibition of ovalbumin- induced bronchoconstriction in Guinea pig, injected intragastrically. Compound dose is 10 mg/kg; format: functional; details: po, route intragastric
Cavia porcellus [22] = assay: Tested for the inhibition of ovalbumin- induced bronchoconstriction in Guinea pig, injected intragastrically. Compound dose is 25 mg/kg; format: functional; details: po, route intragastric
Cavia porcellus [23] = assay: Tested for the inhibition of LTD4-induced bronchoconstriction in Guinea pig, injected intraduodenally, dose of 3 mg/kg; format: functional; details: route intraduodenal
Cavia porcellus [24] = assay: Dissociation constant was determined in vitro after intraduodenal administration in isolated guinea pig trachea; format: ADME, organism-based; details: in vivo, other
Cavia porcellus [25] = assay: Inhibition of LTD4-induced broncho constriction in Guinea pig after intraduodenal administration of a dose of 3 mg/kg; format: functional
Cavia porcellus [26] = assay: In vitro inhibition of LTD4-induced bronchoconstriction into isolated guinea pig trachea by injecting intragastrically; format: functional; details: po
Cavia porcellus [27] = assay: Tested for the inhibition of ovalbumin induced bronchoconstriction in Guinea pig, compound injected intraduodenally, dose is 10 mg/kg; format: functional; details: route intraduodenal
Cavia porcellus [28] = assay: Tested for the inhibition of ovalbumin induced bronchoconstriction in Guinea pig, compound injected intraduodenally, dose is 25 mg/kg; format: functional; details: route intraduodenal
Cavia porcellus [29] = assay: Tested for the inhibition of ovalbumin- induced bronchoconstriction in Guinea pig, compound injected intragastrically, dose of 3 mg/kg; format: functional; details: po, route intragastric
Cavia porcellus [30] = assay: Tested for the inhibition of LTD4-induced bronchoconstriction in Guinea pig, compound injected intragastrically, dose of 25 mg/kg; format: functional; details: po, route intragastric
Cavia porcellus [31] = assay: In vitro inhibition of LTD4-induced bronchoconstriction in isolated guinea pig trachea by injecting intraduodenally; format: functional; details: intraduodenal
Cavia porcellus [32] = assay: In vitro Inhibition of ovalbumin-induced bronchoconstriction in isolated guinea pig trachea by injecting intraduodenally; format: functional; details: intraduodenal
Cavia porcellus [33] = assay: Tested for the inhibition of ovalbumin- induced bronchoconstriction in Guinea pig, compound injected intragastrically, dose of 25 mg/kg; format: functional; details: po, route intragastric
Cavia porcellus [34] = species: Cavia porcellus; assay: Dose of antagonist that produces 50% inhibition of ovalbumin-induced bronchoconstriction; format: functional
Rattus norvegicus = assay: Antiinflammatory effect was studied in a rat carrageenan paw edema (CE) assay at 50 mg/kg; format: functional
Cavia porcellus [35] = assay: Tested for the inhibition of LTD4-induced bronchoconstriction in Guinea pig, compound injected intragastrically, dose of 3 mg/kg; format: functional; details: po, route intragastric

Molecule `CONC(=O)Cc1cccc(OCc2nc3ccccc3n2C)c1` has an inhibition in vivo at 25 mg/kg (Cavia porcellus [1]) of under 58%.

`O=C(O)Cc1cccc(OCc2ccc3ccccc3n2)c1` gave an inhibition in vivo at 25 mg/kg (Cavia porcellus [2]) of under 99%.

With `CON(C)C(=O)Cc1cccc(OCc2ccc3ccccc3n2)c1` the inhibition in vivo at 25 mg/kg (Cavia porcellus [1]) was 93%.

In the case of `c1cc(Cc2nnn[nH]2)cc(OCc2nc3ccccc3s2)c1`, the inhibition in vivo at 25 mg/kg (Cavia porcellus [3]) is reported as under 95%.

For `O=C(NOCc1ccccc1)c1cccc(OCc2ccc3ccccc3n2)c1`, the inhibition in vivo at 25 mg/kg (Cavia porcellus [4]) was under 71% and the inhibition in vivo at 25 mg/kg (Cavia porcellus [1]) was under -14%.

`Cc1ccc(S(=O)(=O)NC(=O)Cc2cccc(OCc3nc4ccccc4s3)c2)cc1` showed an inhibition in vivo at 10 mg/kg (Cavia porcellus [5]) of 42%, an inhibition in vivo at 25 mg/kg (Cavia porcellus [6]) of under 70% and an inhibition in vivo at 3 mg/kg (Cavia porcellus [7]) of 83%. The inhibition in vivo at 25 mg/kg (Cavia porcellus [8]) was 78%, the inhibition in vivo at 3 mg/kg (Cavia porcellus [9]) was 44% and the inhibition in vivo at 25 mg/kg (Cavia porcellus [3]) was under 97%. For the same molecule, the inhibition in vivo at 10 mg/kg (Cavia porcellus [10]) was under 55% and the inhibition in vivo at 3 mg/kg (Cavia porcellus [11]) was 80%.

For `CONC(=O)CCc1cccc(OCc2ccc3ccccc3n2)c1`, the inhibition in vivo at 25 mg/kg (Cavia porcellus [1]) was 86% and the inhibition in vivo at 3 mg/kg (Cavia porcellus [12]) was 5%.

In the case of `O=S(=O)(Nc1cccc(OCc2ccc3ccccc3n2)c1)C(F)(F)F` [RITOLUKAST], the pKb (Cavia porcellus [13]) is reported as 7.7, the ED50 (Cavia porcellus [14]) is reported as 3 mg/kg and the ED50 (Cavia porcellus [15]) is reported as 0.1 mg/kg. It also gave an ED50 (Cavia porcellus [16]) of 0.6 mg/kg, an ED50 (Cavia porcellus [17]) of 0.3 mg/kg and an IC50 [18] of 2 µM. It also gave an IC50 (Cyclooxygenase) of 9.1 µM.

`c1cc(Cc2nnn[nH]2)cc(OCc2ncc3ccccc3n2)c1` showed an inhibition in vivo at 25 mg/kg (Cavia porcellus [3]) of under 77%.

With `O=C(NS(=O)(=O)c1ccccc1)c1cccc(OCc2ccc3ccccc3n2)c1` the inhibition in vivo at 0.3 mg/kg (Cavia porcellus [19]) was under 12% and the inhibition in vivo at 1 mg/kg (Cavia porcellus [20]) was under 82%.

In the case of `O=C(Cc1cccc(OCc2ccc3ccccc3n2)c1)NO`, the inhibition in vivo at 25 mg/kg (Cavia porcellus [3]) is reported as under 14%.

In the case of `c1ccc2nc(COc3ccc(Cc4nnn[nH]4)cc3)ccc2c1`, the inhibition in vivo at 25 mg/kg (Cavia porcellus [1]) is reported as 90%, the inhibition in vivo at 3 mg/kg (Cavia porcellus [12]) is reported as 4% and the inhibition in vivo at 10 mg/kg (Cavia porcellus [21]) is reported as 6%. The inhibition in vivo at 25 mg/kg (Cavia porcellus [22]) was 76%, the inhibition in vivo at 25 mg/kg (Cavia porcellus [3]) was 88% and the inhibition in vivo at 3 mg/kg (Cavia porcellus [23]) was -15%.

`CONC(=O)Cc1cccc(OCc2ccc3ccccc3n2)c1` showed a pKb (Cavia porcellus [24]) of 6.08, an inhibition in vivo at 3 mg/kg (Cavia porcellus [25]) of 44% and an ED50 (Cavia porcellus [26]) of 7.9 mg/kg. It also gave an inhibition in vivo at 10 mg/kg (Cavia porcellus [27]) of 25%, an inhibition in vivo at 25 mg/kg (Cavia porcellus [28]) of 56% and an inhibition in vivo at 3 mg/kg (Cavia porcellus [29]) of 38%. The inhibition in vivo at 25 mg/kg (Cavia porcellus [30]) was 86%, the ED50 (Cavia porcellus [31]) was 1.8 mg/kg and the ED50 (Cavia porcellus [32]) was 7.3 mg/kg. It also gave an inhibition in vivo at 25 mg/kg (Cavia porcellus [33]) of 83%, an ED50 (Cavia porcellus [34]) of 3.6 mg/kg and an IC50 [18] of 14.2 µM. The inhibition in vivo at 50 mg/kg (Rattus norvegicus) was under 41% and the inhibition in vivo at 3 mg/kg (Cavia porcellus [35]) was 2%.
